Results reported in the NIST ThermoML archive (doi:10.1016/j.jct.2019.03.007).
± gives the expanded uncertainty stated by the source.

Test: molar heat capacity at constant pressure
Conditions: 101.33 kPa, Crystal 1, DSC

O=[N+]([O-])[O-].O=[N+]([O-])[O-].[Ca+2] [calcium nitrate]
Conditions | molar heat capacity at constant pressure [J/K/mol]
524.78 K | 177.54 ± 12
525 K | 175.8 ± 12
525.78 K | 177.66 ± 12
526 K | 175.94 ± 12
526.78 K | 177.78 ± 12
527 K | 175.82 ± 12
527.78 K | 177.91 ± 12
528 K | 176.06 ± 12
528.78 K | 178.03 ± 12
529 K | 176.19 ± 12
529.78 K | 178.15 ± 12
530 K | 176.36 ± 12
530.78 K | 178.27 ± 12
531 K | 176.31 ± 12
531.78 K | 178.39 ± 12
532 K | 176.49 ± 12
532.78 K | 178.51 ± 12
533 K | 176.66 ± 12
533.78 K | 178.64 ± 12
534 K | 176.93 ± 12
534.78 K | 178.76 ± 12
535 K | 177.11 ± 12
535.78 K | 178.88 ± 12
536 K | 177.34 ± 12
536.78 K | 179 ± 12
537 K | 177.34 ± 12
537.78 K | 179.12 ± 12
538 K | 177.42 ± 12
538.78 K | 179.24 ± 12
539 K | 177.46 ± 12
539.78 K | 179.36 ± 13
540 K | 177.51 ± 12
540.78 K | 179.48 ± 13
541 K | 177.41 ± 12
541.78 K | 179.6 ± 13
542 K | 177.7 ± 12
542.78 K | 179.71 ± 13
543 K | 177.98 ± 12
543.78 K | 179.83 ± 13
544 K | 178.12 ± 12
544.78 K | 179.95 ± 13
545 K | 178.25 ± 12
545.78 K | 180.07 ± 13
546 K | 178.24 ± 12
546.78 K | 180.18 ± 13
547 K | 178.5 ± 12
547.78 K | 180.3 ± 13
548 K | 178.69 ± 12
548.78 K | 180.41 ± 13
549 K | 178.65 ± 12
549.78 K | 180.52 ± 13
550 K | 178.93 ± 12
550.78 K | 180.64 ± 13
551 K | 179.14 ± 12
551.78 K | 180.75 ± 13
552 K | 179.27 ± 12
552.78 K | 180.86 ± 13
553 K | 179.3 ± 12
553.78 K | 180.97 ± 13
554 K | 179.36 ± 12
554.78 K | 181.08 ± 13
555 K | 179.38 ± 12
555.78 K | 181.19 ± 13
556 K | 179.42 ± 13
556.78 K | 181.3 ± 13
557 K | 179.62 ± 13
557.78 K | 181.42 ± 13
558 K | 179.86 ± 13
558.78 K | 181.53 ± 13
559 K | 179.79 ± 13
559.78 K | 181.64 ± 13
560 K | 180.01 ± 13
560.78 K | 181.75 ± 13
561 K | 180.29 ± 13
561.78 K | 181.86 ± 13
562 K | 180.36 ± 13
562.78 K | 181.98 ± 13
563 K | 180.34 ± 13
563.78 K | 182.09 ± 13
564 K | 180.52 ± 13
564.78 K | 182.2 ± 13
565 K | 180.58 ± 13
565.78 K | 182.32 ± 13
566 K | 180.69 ± 13
566.78 K | 182.43 ± 13
567 K | 180.68 ± 13
567.78 K | 182.55 ± 13
568 K | 180.69 ± 13
568.78 K | 182.66 ± 13
569 K | 180.72 ± 13
569.78 K | 182.78 ± 13
570 K | 180.95 ± 13
570.78 K | 182.89 ± 13
571 K | 181.01 ± 13
571.78 K | 183 ± 13
572 K | 181.17 ± 13
572.78 K | 183.12 ± 13
573 K | 181.26 ± 13
573.78 K | 183.23 ± 13
574 K | 181.32 ± 13
574.78 K | 183.35 ± 13
575 K | 181.37 ± 13
575.78 K | 183.47 ± 13
576 K | 181.6 ± 13
576.78 K | 183.59 ± 13
577 K | 181.65 ± 13
577.78 K | 183.7 ± 13
578 K | 181.77 ± 13
578.78 K | 183.82 ± 13
579 K | 181.78 ± 13
579.78 K | 183.94 ± 13
580 K | 181.89 ± 13
580.78 K | 184.05 ± 13
581 K | 181.94 ± 13
581.78 K | 184.16 ± 13
582 K | 182.11 ± 13
582.78 K | 184.27 ± 13
583 K | 182.13 ± 13
583.78 K | 184.38 ± 13
584 K | 182.17 ± 13
584.78 K | 184.49 ± 13
585 K | 182.35 ± 13
585.78 K | 184.59 ± 13
586 K | 182.41 ± 13
586.78 K | 184.69 ± 13
587 K | 182.46 ± 13
587.78 K | 184.79 ± 13
588 K | 182.63 ± 13
